This series concerns rat chronic carcinogenicity bioassay, TD50. The series can be described thus: DSSTox (CPDBAS) Carcinogenic Potency Database Summary Rat Bioassay Results. Conditions: for outcome: TD50_Rat_Note: no positive results; for Potency: stronger effect = lower value. Put shortly:
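The activity score maps log10(1/TD50_Rat_mmol) linearly onto 1–100; actives without a computed TD50, such as mixtures, receive 50. Source data are chronic rat carcinogenicity tests, using the most positive experiment for each sex.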

Setting [1] is: TargetSites_Rat_Female: no positive results.
Setting [2] is: TargetSites_Rat_Female: stomach.
[3] abbreviates: TargetSites_Rat_BothSexes: no positive results.

Calls of active or inactive are those of the source.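 Rule for the calls: active = at least one rat sex group has a carcinogenic potency value and tumor site recorded; inconclusive = only rat studies were judged inadequate by the national testing program; inactive = no potency or tumor site, with negative rat experiments.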

As to `CCC[CH2][Sn]([CH2]CCC)([O]C(C)=O)[O]C(C)=O`, the outcome (TargetSites_Rat_Female: NTP bioassay inadequate) is “inactive; no positive results”.

For `C[C@@H]1CCCCN1N=O`, the Potency (TargetSites_Rat_BothSexes: nervous system) was 20.4 mg/kg/day.

Turning to `Cc1ccc(S(=O)(=O)NC(=O)NN2CCCCCC2)cc1`, under setting [1], the outcome is “inactive; no positive results”.

As to `O=C([O-])c1cc(N=Nc2ccc(-c3ccc(N=Nc4c(O)ccc(N=Nc5cc(S(=O)(=O)[O-])ccc5[O-])c4[O-])cc3)cc2)ccc1O.[Cu+2].[Na+].[Na+]`, for the setting “TargetSites_Rat_Female: liver”, the Potency was 2.07 mg/kg/day.

As to `CNC(=O)O/N=C(\SC)C(=O)N(C)C`, the outcome under setting [1] is “inactive; no positive results”.

`Clc1ccc(-c2ccc(Cl)c(Cl)c2Cl)c(Cl)c1Cl`: for the setting “TD50_Rat_Note: TD50 is harmonic mean of more than one positive test, TD50_Rat_mmol was not calculated for this mixture, but Activiity S, TargetSites_Rat_Female: liver”, the Potency was 2.81 mg/kg/day.

As to `NC(Cc1c[nH]c2ccccc12)C(=O)O` (stereo not given), the outcome is “inactive; no positive results”.

In the case of `O=NN1CCCN(N=O)C1`, for the setting “TD50_Rat_Note: positive test results only by intraperitoneal or intravenous injection”, the Potency is 0.166 mg/kg/day.

Take `CCCN(CCC)c1ccc(N=Nc2cc[n+]([O-])cc2)cc1`: the outcome is “inactive; no positive results”.

With `CNC(=S)N(C)C`, under “TargetSites_Rat_Female: thyroid gland”, the Potency was 25.8 mg/kg/day.

Regarding `CCCCC1C(=O)N(c2ccccc2)N(c2ccccc2)C1=O`, the Potency (TargetSites_Rat_Female: kidney) is 1160 mg/kg/day.

As for `C=CC(N)=O`, the Potency (TD50_Rat_Note: TD50 is harmonic mean of more than one positive test, TargetSites_Rat_Female: clitoral gland, mammary gland, nervous system, oral cavity, thyroid gland, uterus) is 3.75 mg/kg/day.

In the case of `Clc1c(Cl)c(Cl)c(Cl)c(Cl)c1Cl`, the Potency (TD50_Rat_Note: TD50 is harmonic mean of more than one positive test, harmonic mean of TD50 includes a value for upper 99% confidence li, TargetSites_Rat_Female: liver) is 3.86 mg/kg/day.

As to `CN(C)CCN(Cc1ccco1)c1ccccn1`, the outcome under setting [1] is “inactive; no positive results”.

`CCN=[N+]([O-])CC`: the Potency is 0.022 mg/kg/day.

Consider `CN(N=O)c1ccc(/C=C/c2ccnc3ccccc23)cc1`, for which the Potency (TD50_Rat_Note: TD50 is harmonic mean of more than one positive test, TargetSites_Rat_Female: liver) is 0.699 mg/kg/day.

`CC1CO1` (stereo not given): the Potency (TD50_Rat_Note: TD50 is harmonic mean of more than one positive test, greater than ten-fold variation among TD50 values for positive res, TargetSites_Rat_Female: mammary gland, nasal cavity, stomach) was 74.4 mg/kg/day.

Take `COc1ccc([N+](=O)[O-])cc1N`: under “TD50_Rat_Note: TD50 is harmonic mean of more than one positive test, TargetSites_Rat_Female: clitoral gland, skin”, the Potency was 53.9 mg/kg/day.

For the compound `CC1CC(=O)O1` (stereo not given), the Potency under setting [2] was 13.8 mg/kg/day.

As to `CC1(C)O[C@@H]2C[C@H]3[C@@H]4CCC5=CC(=O)C=C[C@]5(C)[C@@]4(F)[C@@H](O)C[C@]3(C)[C@]2(C(=O)CO)O1`, the Potency is 0.053 mg/kg/day.

For `C1C2OC2C2C1C1CC2C2OC12` (stereo not given), the outcome was “inactive; no positive results”.

On to `CN(C)[C@@H]1C(=O)C(C(N)=O)=C(O)[C@@]2(O)C(=O)C3=C(O)c4c(O)cccc4[C@@](C)(O)[C@H]3[C@H](O)[C@@H]12`, for which the outcome under setting [1] is “inactive; no positive results”.

As for `CCN(CC)N=O`, the Potency (TD50_Rat_Note: TD50 is harmonic mean of more than one positive test, greater than ten-fold variation among TD50 values for positive res, TargetSites_Rat_Female: esophagus, liver, oral cavity, stomach) is 0.0265 mg/kg/day.

Turning to `Clc1cc(Cl)cc(-c2cc(Cl)cc(Cl)c2)c1`, under setting [1], the outcome was inactive.

Turning to `CCCCOC(=O)c1ccccc1C(=O)OCc1ccccc1`, the Potency (TargetSites_Rat_Female: no positive results- CPDB evaluation based on NCI Technical Report) was 1040 mg/kg/day.

Consider `CC1CN(N=O)CC(C)N1C(=O)c1ccccc1` (stereo not given), for which, under setting [2], the Potency was 9.66 mg/kg/day.

In the case of `OCC(O)CCl` (stereo not given), under setting [1], the outcome is “inactive; no positive results”.

For the compound `CC(C)=CCC/C(C)=C/C=O`, under setting [1], the outcome was “inactive; no positive results”.

As for `C=O`, the Potency (TD50_Rat_Note: TD50 is harmonic mean of more than one positive test, greater than ten-fold variation among TD50 values for positive res, TargetSites_Rat_Female: hematopoietic system, nasal cavity) is 1.35 mg/kg/day.

As to `S=C=NCCc1ccccc1`, the outcome is “inactive; no positive results”.

Turning to `CC(C)O`, under setting [1], the outcome was “inactive; no positive results”.

Consider `C=C/C1=C/[C@H](C)[C@](C)(OC(C)=O)C(=O)OCC2=CC[N+]3(C)CC[C@@H](OC1=O)C23[O-]` (stereo not given in full), for which, for the setting “TargetSites_Rat_BothSexes: liver, vascular system”, the Potency is 0.5 mg/kg/day.

`Cc1nc(N)cc2[nH]c3ccccc3c12`: the Potency (TD50_Rat_Note: TD50 is harmonic mean of more than one positive test, TargetSites_Rat_Female: clitoral gland, hematopoietic system, liver, mammary gland, small intestine, vascular system) was 6.66 mg/kg/day.

As to `OCN(CO)c1nc(N(CO)CO)nc(N(CO)CO)n1`, the Potency (TargetSites_Rat_Female: kidney, mammary gland) was 10.2 mg/kg/day.

With `Oc1cccc(O)c1`, under setting [1], the outcome was “inactive; no positive results”.

Consider `Nc1cnn([C@@H]2O[C@H](CO)[C@@H](O)[C@H]2O)c(=O)n1`, for which the outcome was “inactive; no positive results”.

On to `Cn1cnc2nc(N)[nH]c(=O)c21`, for which, under setting [3], the outcome was inactive.

Turning to `Nc1ccc(Sc2ccc(N)cc2)cc1`, under “TD50_Rat_Note: TD50 is harmonic mean of more than one positive test, TargetSites_Rat_Female: ear Zymbals gland, thyroid gland, uterus”, the Potency was 3.71 mg/kg/day.

`O=S1(=O)CC=CC1`: under setting [1], the outcome was “inactive; no positive results”.

Consider `O=NN1CCCCO1`, for which the Potency (TargetSites_Rat_BothSexes: all tumor bearing animals) was 24.3 mg/kg/day.

On to `Nc1ccc(-c2ccc(N)c(N)c2)cc1N`, for which the Potency was 395 mg/kg/day.

`O=C1NS(=O)(=O)c2ccccc21`: the outcome is “inactive; no positive results”. Further, the Potency (TD50_Rat_Note: TD50 is harmonic mean of more than one positive test, greater than ten-fold variation among TD50 values for positive res, TargetSites_Rat_Female: no positive results) was 2140 mg/kg/day.

As for `CCCN(CCC)N=O`, the Potency (TargetSites_Rat_Female: esophagus, liver, nasal cavity) was 0.186 mg/kg/day.

On to `Nc1ccc(Cl)cc1`, for which, under setting [1], the outcome was “inactive; no positive results” and the Potency was 7.62 mg/kg/day.

Turning to `COc1cc(-c2ccc(N)c(OC)c2)ccc1N`, the Potency (TD50_Rat_Note: TD50 is harmonic mean of more than one positive test, TargetSites_Rat_Female: clitoral gland, ear Zymbals gland, large intestine, liver, mammary gland, oral cavity, skin, uterus) is 1.04 mg/kg/day.

On to `CCN(CC)C(=O)c1cccc(C)c1`, for which the outcome under setting [1] was “inactive; no positive results”.

`CN(C)NC(=O)CCC(=O)O`: the Potency (TD50_Rat_Note: no positive results are statistically significant, TargetSites_Rat_Female: uterus) is 2500 mg/kg/day.

With `CN(C)CCOc1ccc(/C(=C(/CCCl)c2ccccc2)c2ccccc2)cc1`, under setting [1], the outcome was “inactive; no positive results”.

`O=C(O)O`: the outcome is “inactive; no positive results”. For the same compound, the Potency (TD50_Rat_Note: TD50 is harmonic mean of more than one positive test, TargetSites_Rat_Female: urinary bladder) was 13000 mg/kg/day.

`CN1C(=O)C[C@@H](C(=O)N[C@@H](Cc2cnc[nH]2)C(=O)N2CCC[C@H]2C(N)=O)NC1=O`: the outcome under setting [1] was “inactive; no positive results”.

In the case of `Nc1cc(Cl)c(-c2cc(Cl)c(N)cc2Cl)cc1Cl`, the outcome under setting [1] was “inactive; no positive results”.

In the case of `COc1cc(-c2ccc(N=C=O)c(OC)c2)ccc1N=C=O`, the Potency (TD50_Rat_Note: TD50 is harmonic mean of more than one positive test, TargetSites_Rat_Female: hematopoietic system, uterus) is 1630 mg/kg/day.

For the compound `Cc1ccc(Cl)cc1N`, the outcome under setting [1] is “inactive; no positive results”.

Take `O=C(C1CCCCC1)N1CC(=O)N2CCc3ccccc3C2C1` (stereo not given): the outcome under setting [1] is “inactive; no positive results”.

Consider `O=C1C(O)N=C(c2ccccc2F)c2cc(Cl)ccc2N1CCO` (stereo not given), for which the outcome under setting [1] is “inactive; no positive results”.

As for `Clc1cccc(-c2cccc(Cl)c2)c1`, the Potency (TD50_Rat_Note: no positive results are statistically significant, TD50_Rat_mmol was not calculated for this mixture, but Activiity Scor) was 157 mg/kg/day.

Regarding `CC(C)C=O`, the outcome under setting [1] is “inactive; no positive results”.

In the case of `O=[N+]([O-])c1ccc(NCCO)c(OCCO)c1`, under setting [1], the outcome was “inactive; no positive results”.

With `CCNc1nc(Cl)nc(NC(C)C)n1`, the Potency (TD50_Rat_Note: TD50 is harmonic mean of more than one positive test, TargetSites_Rat_Female: hematopoietic system, mammary gland, uterus) is 36.6 mg/kg/day.

In the case of `NC(Cc1ccc(O)c(O)c1)C(=O)O` (stereo not given), the outcome was “inactive; no positive results”.

Regarding `c1ccc2ccccc2c1`, the Potency (TD50_Rat_Note: TD50 is harmonic mean of more than one positive test, TargetSites_Rat_Female: nasal cavity) was 22.1 mg/kg/day.

As to `Cc1cc(O)c(C(C)(C)C)cc1Sc1cc(C(C)(C)C)c(O)cc1C`, the outcome under setting [1] is “inactive; no positive results”.

Turning to `C=CC(O)c1ccc2c(c1)OCO2` (stereo not given), the Potency (TD50_Rat_Note: TD50 is harmonic mean of more than one positive test) is 18.4 mg/kg/day.

As to `O=C1C2(Cl)C3(Cl)C4(Cl)C(Cl)(Cl)C5(Cl)C3(Cl)C1(Cl)C5(Cl)C24Cl` (stereo not given), the Potency (TargetSites_Rat_Female: liver) was 2.96 mg/kg/day.

Turning to `CC#N`, under setting [1], the outcome was “inactive; no positive results”.

For the compound `CC1(C)C(=O)NC(=O)NC1=O`, the outcome is “inactive; no positive results”.

Regarding `NC1CCCCC1`, the outcome under setting [1] was “inactive; no positive results”.

For the compound `OCC(O)CO`, the result under setting [3] was inactive.

On to `C=CCc1ccc(OC)c(OC)c1`, for which, for the setting “TD50_Rat_Note: TD50 is harmonic mean of more than one positive test, TargetSites_Rat_Female: liver, stomach”, the Potency was 19.7 mg/kg/day.

As for `CCCCCN(N=O)C(N)=O`, for the setting “TD50_Rat_Note: TD50 is harmonic mean of more than one positive test, TargetSites_Rat_Female: hematopoietic system, lung, mammary gland, stomach, uterus”, the Potency is 0.555 mg/kg/day.

In the case of `O=CNc1nc(-c2ccc([N+](=O)[O-])o2)cs1`, the Potency (TD50_Rat_Note: TD50 is harmonic mean of more than one positive test, harmonic mean of TD50 includes a value for upper 99% confidence li, TargetSites_Rat_Female: urinary bladder) was 4.25 mg/kg/day.

As to `S=P(N1CC1)(N1CC1)N1CC1`, the Potency (TD50_Rat_Note: positive test results only by intraperitoneal or intravenous injection, TD50 is harmonic mean of more than one positive, TargetSites_Rat_Female: ear Zymbals gland) was 0.164 mg/kg/day.

The values above are taken from PubChem BioAssay AID1208 (EPA DSSTox, 2008).
